Laboratory results published in patent US7101878B1 (Agouron Pharmaceuticals, Inc., priority 1998, dated 2006).
Like-named read-outs stand apart in the source and are kept apart here.

Legend:
rat GnRH receptor = molecular target: T1, rat GnRH receptor (Rattus norvegicus, UniProt P30969); assay: Radioligand binding, 125I-GnRH-A, rat pituitary membranes; set-up: membranes were prepared from rat pituitary; from tissue; host or cells: rat pituitary
T1 sequence (P30969 1-327): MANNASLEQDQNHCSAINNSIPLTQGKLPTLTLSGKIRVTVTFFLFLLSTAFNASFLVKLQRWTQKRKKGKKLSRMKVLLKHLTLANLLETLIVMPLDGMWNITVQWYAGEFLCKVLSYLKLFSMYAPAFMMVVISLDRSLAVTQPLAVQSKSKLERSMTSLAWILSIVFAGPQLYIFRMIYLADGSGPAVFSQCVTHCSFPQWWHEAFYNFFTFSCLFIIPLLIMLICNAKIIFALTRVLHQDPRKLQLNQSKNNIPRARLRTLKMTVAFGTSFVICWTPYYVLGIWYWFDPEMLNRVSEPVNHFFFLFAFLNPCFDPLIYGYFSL
In short: (§1)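 Bound label captured on 0.1% polyethyleneimine-treated GF/C filters, washed three times with PBS, counted. IC50 derived; identical set-up for every species.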

bovine GnRH receptor = molecular target: T2, bovine GnRH receptor (Bos taurus, UniProt P32236); assay: Radioligand binding, 125I-GnRH-A, bovine pituitary membranes
T2 construct: membranes were prepared from bovine pituitary; from tissue; host or cells: bovine pituitary
T2 sequence (P32236 1-328): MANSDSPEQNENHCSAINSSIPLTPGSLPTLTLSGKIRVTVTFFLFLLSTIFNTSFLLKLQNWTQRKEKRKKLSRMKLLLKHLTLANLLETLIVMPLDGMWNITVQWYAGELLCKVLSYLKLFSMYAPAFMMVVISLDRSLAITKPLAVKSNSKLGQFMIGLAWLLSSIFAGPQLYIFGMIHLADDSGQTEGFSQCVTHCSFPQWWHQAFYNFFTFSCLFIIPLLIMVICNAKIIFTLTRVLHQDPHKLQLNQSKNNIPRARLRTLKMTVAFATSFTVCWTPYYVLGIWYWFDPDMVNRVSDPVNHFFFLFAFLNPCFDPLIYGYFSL
Description: All compounds were diluted in 1% DMSO (final assay concentration) in binding assay buffer. […] Reactions were terminated by rapid filtration onto 96-well Packard GF/C filters soaked in 0.1% polyethyleneimine. Filters were washed three times with PBS buffer, dried and counted on a Packard Topcount by liquid scintillation counting.
Assay conditions were identical for assessing compound activities at other species. […] IC50 values for control peptides and test compounds were calculated utilizing GraphPad Prism™ software.
The reaction mixture was vortexed and incubated for 1 min at room temperature. After one min, the mixture was vortexed and allowed to incubate for an additional minute. 2 ml of 0.5 M acetic acid/1% BSA was added to the reaction tube and the mixture was added to a C18 Sep-Pak cartridge. The cartridge was washed with subsequent washes of 5 ml H2O and 5 ml 0.5M acetic acid and then eluted with 5×1 ml of 60% CH3CN/40% 0.5M acetic acid. The eluate was diluted with 3× volume of HPLC buffer A (0.1% TFA in H2O) and loaded onto a C18 column. […] The radioactive fractions (750 ed/fraction) are collected into clean polypropylene tubes containing 100 μl of 10% BSA. Fractions were assessed for biological activity by radioligand binding.

human GnRH receptor = molecular target: T3, human GnRH receptor (Homo sapiens, UniProt P30968); assay: Radioligand binding, 125I-GnRH-A displacement, membranes of HEK 293 cells with human GnRH receptor
T3 construct: expressed in transfected cells; host or cells: HEK 293 (hGnRH-R/293, from Dr. Stuart Sealfon)
T3 sequence (P30968 1-328): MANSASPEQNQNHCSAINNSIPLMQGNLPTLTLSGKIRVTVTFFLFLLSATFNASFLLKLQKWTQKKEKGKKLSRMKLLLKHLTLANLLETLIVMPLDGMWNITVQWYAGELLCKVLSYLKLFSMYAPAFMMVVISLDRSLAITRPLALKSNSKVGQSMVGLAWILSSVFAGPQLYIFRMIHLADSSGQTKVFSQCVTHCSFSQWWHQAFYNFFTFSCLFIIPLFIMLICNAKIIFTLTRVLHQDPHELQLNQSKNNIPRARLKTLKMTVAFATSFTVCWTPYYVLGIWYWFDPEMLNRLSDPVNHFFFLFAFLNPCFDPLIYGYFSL
In short: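 After filtration and PBS washes, bound radioactivity was counted by scintillation and IC50 derived. Identical conditions applied for non-human receptors.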

[1] = Pharmacokinetic studies / bioavailability in rats; assay type: in vivo, rat; details: for half-life / Cmax / Tmax: rat, plasma; for Cmax / Tmax: po, p.o. 10 mg/kg
mouse GnRH receptor = molecular target: T4, mouse GnRH receptor (Mus musculus, UniProt Q01776); assay: Radioligand binding, 125I-GnRH-A, 293 cells expressing mouse GnRH receptors
T4 construct: expressed in transfected cells; host or cells: 293 cells
T4 sequence (Q01776 1-327): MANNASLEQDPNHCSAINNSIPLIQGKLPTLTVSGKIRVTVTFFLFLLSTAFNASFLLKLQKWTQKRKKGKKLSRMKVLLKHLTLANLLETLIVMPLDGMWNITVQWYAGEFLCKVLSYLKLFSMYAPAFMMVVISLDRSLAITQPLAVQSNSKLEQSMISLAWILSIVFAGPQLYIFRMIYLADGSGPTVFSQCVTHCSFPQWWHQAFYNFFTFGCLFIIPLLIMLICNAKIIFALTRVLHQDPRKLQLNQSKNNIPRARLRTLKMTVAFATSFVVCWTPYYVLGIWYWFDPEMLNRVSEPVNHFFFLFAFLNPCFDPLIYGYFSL
In short: as §1

[2] = Metabolism rate, pmol/min/mg at 1 μM, rat male; assay type: in vitro ADME; details: 1 μM compound
[3] = Metabolism rate, pmol/min/mg at 1 μM, human; assay type: in vitro ADME; details: 1 μM compound
[4] = Metabolism rate, pmol/min/mg at 1 μM, rat female; assay type: in vitro ADME; details: 1 μM compound
[5] = means ± SE of at least three experiments performed in duplicate, read-out: Rat IC50
[6] = means ± SE of at least three experiments performed in duplicate, read-out: Bovine IC50
[7] = means ± SE of at least three experiments performed in duplicate, read-out: Human IC50
[8] = male, 10 mg/kg, rat male, vehicle per footnote
[9] = means ± SE of at least three experiments performed in duplicate, read-out: Mouse IC50
[10] = second value marked * (mostly in parentheses), asterisk not explained, read-out: hGnRH IC50, value marked *
[11] = female, 10 mg/kg, rat female, 5 mg/ml solution in 10% DMSO 10% cremophor 80% saline

SMILES	IC50 (rat GnRH receptor; [5])	IC50 (rat GnRH receptor; read-out: rGnRH IC50)	IC50 (bovine GnRH receptor; [6])	IC50 (human GnRH receptor; [7])	IC50 (human GnRH receptor; read-out: hGnRH IC50)	half-life ([1]; male, iv, 10 mg/kg, rat male)	Cmax [1, 8]	Tmax [1, 8]	IC50 (mouse GnRH receptor; [9])	IC50 (mouse GnRH receptor; read-out: mGnRH IC50)	IC50 (bovine GnRH receptor; read-out: bGnRH IC50)	Rat male pmol/min/mg 1 μM [2]	Human pmol/min/mg 1 μM [3]	IC50 (human GnRH receptor; [10])	Cmax [1, 11]	Tmax [1, 11]	half-life ([1]; female, rat female)	Fp.o. ([1]; rat female, 5 mg/ml solution in 10% DMSO 10% cremophor 80% saline)	Rat female pmol/min/mg 1 μM [4]
Cc1ccc(CNC(=O)c2ccc(Cc3cc4c(cc3C)C(C)(C)CCC4(C)C)o2)cc1 [Compound 14]	60 ± 15 nM	60 nM	1050 ± 30 nM	80 ± 4 nM	80 nM	1.4 h	1600 nM	1 h	290 ± 70 nM	290 nM	–	–	–	–	–	–	–	–	–
Cc1cc2c(cc1Cc1ccc(C(=O)NCC3CCC(C#N)CC3)o1)C(C)(C)CCC2(C)C (stereo not drawn) [Compound 16]	560 ± 50 nM	560 nM	4380 ± 510 nM	30 ± 6 nM	30 nM	0.667 h	–	–	1290 ± 210 nM	1290 nM	–	–	–	–	–	–	–	–	–
Cc1cc2c(cc1Cc1ccc(C(=O)NCc3cccc(C)c3C)o1)C(C)(C)CCC2(C)C [Compound 17]	30 ± 4 nM	30 nM	670 ± 120 nM	80 ± 20 nM	80 nM	2.2 h	–	–	80 ± 20 nM	80 nM	–	–	–	–	–	–	–	–	–
Cc1ccc(CNC(=O)c2ccc(Cc3cc4c(cc3C)C(C)(C)CCC4(C)C)o2)cc1C [Compound 18]	40 ± 3 nM	40 nM	460 ± 90 nM	55 ± 11 nM	55 nM	0.917 h	–	–	115 ± 25 nM	115 nM	–	–	–	–	–	–	–	–	–
CC(=O)c1cccc(NC(=O)c2ccc(Cc3cc4c(cc3C)C(C)(C)CCC4(C)C)o2)c1 [Compound 19]	–	60 nM	–	50 ± 3 nM	50 nM	0.717 h	–	–	–	160 nM	605 nM	–	–	–	–	–	–	–	–
Cc1cccc(CNC(=O)c2ccc(Cc3cc4c(cc3C)C(C)(C)CCC4(C)C)o2)c1 [Compound 41]	–	210 nM	–	–	140 nM	–	–	–	–	490 nM	1400 nM	1606 pmol/min/mg	185 pmol/min/mg	–	–	–	–	–	–
COc1ccc(CNC(=O)c2ccc(Cc3cc4c(cc3C)C(C)(C)CCC4(C)C)o2)cc1 [Compound 42]	–	100 nM	–	–	75 nM	0.967 h	–	–	–	280 nM	1780 nM	1387 pmol/min/mg	361 pmol/min/mg	65 nM	–	–	–	–	–
Cc1cc2c(cc1Cc1ccc(C(=O)NCc3cccs3)o1)C(C)(C)CCC2(C)C [Compound 44]	–	510 nM	–	–	390 nM	0.917 h	–	–	–	610 nM	4440 nM	1759 pmol/min/mg	459 pmol/min/mg	120 nM	–	–	–	–	–
Cc1cc2c(cc1Cc1ccc(C(=O)NCc3ccccc3F)o1)C(C)(C)CCC2(C)C [Compound 46]	–	900 nM	–	–	–	0.917 h	–	–	–	1880 nM	8700 nM	1781 pmol/min/mg	485 pmol/min/mg	330 nM	–	–	–	–	–
Cc1cc2c(cc1Cc1ccc(C(=O)NCCOc3ccccc3)o1)C(C)(C)CCC2(C)C [Compound 47]	–	130 nM	–	–	230 nM	1.5 h	–	–	–	240 nM	1920 nM	2198 pmol/min/mg	392 pmol/min/mg	80 nM	–	–	–	–	–
Cc1cc2c(cc1Cc1ccc(C(=O)NCc3ccccc3Cl)o1)C(C)(C)CCC2(C)C [Compound 51]	–	120 nM	–	–	150 nM	–	–	–	–	400 nM	1930 nM	1877 pmol/min/mg	392 pmol/min/mg	–	–	–	–	–	–
COc1ccc(CNC(=O)c2ccc(Cc3cc4c(cc3C)C(C)(C)CCC4(C)C)o2)c(OC)c1 [Compound 56]	–	70 nM	–	–	100 nM	2.6 h	–	–	–	220 nM	1000 nM	3412 pmol/min/mg	392 pmol/min/mg	–	–	–	–	–	–
COC(=O)c1ccc(OC)c(NC(=O)c2ccc(Cc3cc4c(cc3C)C(C)(C)CCC4(C)C)o2)c1 [Compound 72]	–	84 nM	–	–	130 nM	–	–	–	–	85 nM	1440 nM	4226 pmol/min/mg	278 pmol/min/mg	–	–	–	–	–	–
Cc1cc2c(cc1Cc1ccc(C(=O)NCc3ccc(CNc4ncccn4)cc3)o1)C(C)(C)CCC2(C)C [Compound 137]	–	400 nM	–	–	200 nM	–	–	–	–	360 nM	–	–	594 pmol/min/mg	–	230 nM	1 h	7.9 h	1% (10 mg/kg)^10	182 pmol/min/mg
